Assay results taken from article PMC10005264, “Computational Design, Synthesis, and Biophysical Evaluation of β-Amido Boronic Acids as SARS-CoV-2 M^pro Inhibitors” (Molecules, 2023).

Columns and labels:
[1] = target: T1, His-tagged recombinant Mpro^CoV-2 (Severe acute respiratory syndrome coronavirus 2, UniProt P0DTD1); experiment: microscale thermophoresis binding check; settings: 50 nM labelled protein, PBS-T, 2.5% DMSO, 25 °C, 60-90 min incubation; tested concentration, not a Kd
T1 construct: gene rep
Description: microscale thermophoresis binding check on His-tagged recombinant Mpro^CoV-2

[2] = target: T2, recombinant Mpro^CoV-2 (SARS-CoV-2 M^pro) (Severe acute respiratory syndrome coronavirus 2, UniProt P0DTD1); experiment: FRET peptide cleavage assay (Dabcyl-KTSAVLQSGFRKME-Edans); type: biochemical
T2 construct: gene rep
Description: FRET peptide cleavage assay (Dabcyl-KTSAVLQSGFRKME-Edans) on recombinant Mpro^CoV-2 (SARS-CoV-2 M^pro)

Compound	Ligand Concentration Displaying: / Binding [1] [µM]	inhibition at 20 µM [2] [%]
NC(=O)CCC(=O)N(CC(=O)NCc1ccccc1)[C@H](CB(O)O)c1ccccc1 [3c, (R)-(2-(4-Amino-N-(2-(benzylamino)-2-oxoethyl)-4-oxobutanamido)-2-phenylethyl)boronic Acid]	4	
NC(=O)CCCC(=O)N(CC(=O)NCc1ccccc1)[C@@H](CB(O)O)c1ccccc1 [3eb, (S)-(2-(5-Amino-N-(2-(benzylamino)-2-oxoethyl)-5-oxopentanamido)-2-phenylethyl)boronic Acid]	3.1	
NC(=O)CCCC(=O)N(CC(=O)NCc1ccccc1)[C@H](CB(O)O)c1ccccc1 [3ea, (R)-(2-(5-Amino-N-(2-(benzylamino)-2-oxoethyl)-5-oxopentanamido)-2-phenylethyl)boronic Acid]		23.7
CC(C)(C)NC(=O)CN(C(=O)CCCC(N)=O)[C@H](CB(O)O)c1ccccc1 [3f, (R)-(2-(5-Amino-N-(2-(tert-butylamino)-2-oxoethyl)-5-oxopentanamido)-2-phenylethyl)boronic Acid]	1	
NC(=O)CCC(=O)N(CC(=O)NC1CCCCC1)[C@H](CB(O)O)c1ccccc1 [3a, (R)-(2-(4-Amino-N-(2-(cyclohexylamino)-2-oxoethyl)-4-oxobutanamido)-2-phenylethyl)boronic Acid]		23.4
